In patent US10351523B2, “UV-absorbing compounds with at least one reactive hydrogen” (ISP INVESTMENTS LLC, priority 2013, dated 2019):

Test: Water solubility of the isolated powder (observation after work-up)
Assay type: physicochemical
Conditions: isolated lemon-yellow powder
Experimental: (§1) To a premixed solution of 6.0 g ethylene diamine in 30 ml ethanol was added 30.8 g of 5-benzoyl-4-hydroxy-2-methoxy benzenesulfonic acid and stirred well until a solution was formed. The mixture was heated to 130° C. for 16 hours and then cooled to 70° C. The ethanol residue was flashed off in a vacuum oven at 70° C.
as §1, with “11.6” for “6.0”, “hexamethylene” for “ethylene”, “40 g” for “30 ml”
An amount of 7.4 g propylene diamine, 30.8 g of 5-benzoyl-4-hydroxy-2-methoxy benzenesulfonic acid, and 30 ml of 1:1 ethanol-water mixture was stirred well until a clear solution was obtained. […] The ethanol residue was flashed off in a vacuum oven at 70° C.

Row | Substance | solubility in water
1 | 2-hydroxy-4-methoxy-5-(N-6-aminohexyl) sulfonamido-4′-methylbenzophenone [Example 4] | insoluble in water
2 | 2-hydroxy-4-methoxy-5-(N-3-aminopropyl)sulfonamido-4′-methylbenzophenone [Example 5] | insoluble in water
